# Key:
# [1] = system: EBV viral DNA copy number; experiment: real-time PCR for EBV viral DNA copy number (viral replication); assay type: cell-based, Epstein-Barr virus; conditions: for EBV viral replication (DNA copy number): LCL and SNU719 cells, 1 μM, 48 hours
# Method: Genomic DNA from treated cells were extracted with the QIAamp DNA mini kit (Qiagen, CA) according to the manufacturer's instructions. PCRs were set up in a volume of 50 μL with a TaqMan PCR core reagent kit (Perkin-Elmer Corp., Branchburg, N.J.). Fluorescent probes were custom synthesized by Perkin-Elmer Applied Biosystems. PCR primers were synthesized by Gibco BRL (Frederick, Md.). Each reaction contained 5 μL of 10× buffer A (4 mM MgCl2), amplification primers (300 nM), fluorescent probe (25 nM), dATP, dCTP, and dGTP (200 μM each), dUTP (400 uM), 1.25 U of AmpliTaq Gold, and 0.5 U of AmpErase uracil N-glycosylase. Extracted genomic DNA was used for amplification. DNA amplification was carried out in a 96-well reaction plate in a Perkin-Elmer Applied Biosystems 7700 sequence detector. Each sample was analyzed in duplicate, and multiple negative water blanks were included in each analysis. A calibration curve was run in parallel and in duplicate with each analysis, with DNA extracted from the EBV-positive cell line Namalwa as a standard.
# The EBV genome was quantified by real-time PCR with the ICycler system (Biorad, Hercules, Calif.). Template DNA was extracted with a mini blood DNA Kit (Qiagen, Valencia, Calif.). […]. A calibration curve was run in parallel and in duplicate with each analysis, using DNA extracted from the diploid EBV-positive cell line Namalwa containing two integrated viral genomes per cell as a standard. Amplification data were collected with an MyiQ single color real-time PCR Detector (Biorad) and analyzed with the MyiQ software developed by Biorad.
# [2] = system: BZLF1 protein (ZTA); experiment: Western blot / immunoblot for ZTA (BZLF1 protein) in EBV positive cell lines; assay type: cell-based, Epstein-Barr virus
# Method: To detect expression of the EBV-TK or EBV-ZTA, total cell protein was first extracted by treating cells with lysis buffer (0.05 M Tris, pH 7.6, 0.15 M NaCl, 1% triton-X 100, 2 mM EDTA) containing protease inhibitors for 10 minutes at 4° C. The following reagents were added to 1 mL of lysis buffer: 2 μL leupeptin (5 mg/mL), 1 μL 0.2 M Na3VO4, 1 μL NaF, 1 μL aprotinin (10 mg/ml), 1 μL, pepstatin (2 mM), and 10 μL PMSF (100 mM) for 10 minutes at 4° C. Following centrifugation, the supernatant was collected and stored at −80° C. Protein concentration was determined with the BCA Protein Assay Kit (Pierce, Rockford, Ill.) according to the manufacturer's instructions. A 10 μg aliquot of total cellular protein was fractionated on a 7.5% SDS-polyacrylamide gel. Proteins were transferred to PROTRAN nitrocellulose membrane (Schleicher & Schuell, Keene, N.H.). The membranes were blocked with 5% blotting grade non-fat dry milk (Bio-rad, Hercules, Calif.) in PBS with 0.1% TWEEN-20 (PBS-T) at 4° C. overnight. The membranes were then washed with PBS-T twice followed by incubation with 1/1,000-diluted rabbit anti-TK sera from a rabbit immunized with a synthetic EBV-TK peptide ([…]) or anti-ZTA monoclonal antibody (Argene, North Massapequa, N.Y.) at room temperature for 1 hour. After washing, the membranes were incubated with HRP-conjugated goat anti-rabbit IgG antibodies or HRP-conjugated goat anti-mouse IgG antibodies (Amersham Pharmacia Biotech, Piscataway, N.J.) at a 1/5,000 dilution in PBS-T at room temperature for 1 hour. The membranes were washed twice and proteins were detected with ECL Western Blotting Detection reagents (Amersham Pharmacia Biotech). The membranes were exposed to X-OMAT film (Kodak, Rochester, N.Y.) at room temperature.
# For lytic induction studies, cells were seeded at 10^6/ml, and treated with test compounds for 48 hours. Control untreated cells were incubated in parallel.
# Cells were washed with PBS twice. Total cellular protein was extracted with lysis buffer. Proteins were electrophoresed in polyacrylamide and then transferred onto a PROTRAN nitrocellulose membrane (Schleicher&Schuell, Keene, N.H.). Blots were probed with primary antibody (Ab) overnight at 4° C. HRP-conjugated secondary Ab was added after washing and detected by an enhanced chemiluminescence system (ECL) (Amersham). The following antibodies were used: anti-ZTA (Argene), anti-f3-actin (Sigma), anti-mouse (Sigma).
# [3] = system: EBV-positive lymphoblastoid cells (LCL); experiment: immunofluorescence assay for BZLF1 protein in LCL cells; assay type: cell-based, Epstein-Barr virus; conditions: 1 μM, 48 hours
# Method: LCL cells were treated with 1 μM Ara-c for 48 hours. The cells were then washed with PBS, resuspended, and plated on polylysine glass slides. Indirect immunofluorescence assays and fluorescence microscopy were performed. The slides were fixed in methanol at −20° C., washed with PBS, then incubated in primary antibody anti-ZTA (1:200) (Argene), washed with PBS, followed by secondary antibody incubation of donkey rhodamine-conjugated IgG (Jackson Pharmaceuticals, west Grove, Pa.). Mounting solution with 4′,6′-diamidino-2-phenylindole (DAPI) (Vector Shield) was used to mark the nucleus of the cell. Slides were then observed and photographed with 40× objectives on a E800 microscope (NIKON) with CCD camera (Princeton Instruments) using Metamorph software (Universial Imaging-Molecular Devices).
# [4] = system: Zta promoter; assay type: cell-based, Epstein-Barr virus; conditions: AGS cells
# [5] = system: EBV-TK; experiment: immunoblot for EBV-TK expression; assay type: cell-based, Epstein-Barr virus; conditions: Western blot
# Method: To detect expression of the EBV-TK or EBV-ZTA, total cell protein was first extracted by treating cells with lysis buffer (0.05 M Tris, pH 7.6, 0.15 M NaCl, 1% triton-X 100, 2 mM EDTA) containing protease inhibitors for 10 minutes at 4° C. The following reagents were added to 1 mL of lysis buffer: 2 μL leupeptin (5 mg/mL), 1 μL 0.2 M Na3VO4, 1 μL NaF, 1 μL aprotinin (10 mg/ml), 1 μL, pepstatin (2 mM), and 10 μL PMSF (100 mM) for 10 minutes at 4° C. Following centrifugation, the supernatant was collected and stored at −80° C. Protein concentration was determined with the BCA Protein Assay Kit (Pierce, Rockford, Ill.) according to the manufacturer's instructions. A 10 μg aliquot of total cellular protein was fractionated on a 7.5% SDS-polyacrylamide gel. Proteins were transferred to PROTRAN nitrocellulose membrane (Schleicher & Schuell, Keene, N.H.). The membranes were blocked with 5% blotting grade non-fat dry milk (Bio-rad, Hercules, Calif.) in PBS with 0.1% TWEEN-20 (PBS-T) at 4° C. overnight. […] The membranes were washed twice and proteins were detected with ECL Western Blotting Detection reagents (Amersham Pharmacia Biotech). […]
# [6] = system: AGS-BX1 cells; experiment: GFP assay in AGS-BX1 cells; conditions: 1 μM
Compound,EBV viral replication (DNA copy number) [1],EBV viral replication (DNA copy number) ([1]; listed as Ara-c),"BZLF1 protein (ZTA) expression ([2]; AKATA(-BX1), LCL and SNU719 cells, 1 μM, 48 hours)",LCL cells induced into lytic infection [3],Zta promoter luciferase activity [4],EBV early lytic gene TK expression [5],"increase of EBV viral DNA copy number ([1]; LCL cells and Rael cells, 1 μM for 48 hours)",GFP signal [6],ZTA expression ([2]; LCL cells and AKATA cells),induction of BZLF1 promoter ([4]; 1 μM)
Nc1ccn([C@@H]2O[C@H](CO)[C@@H](O)[C@@H]2O)c(=O)n1 [Cytarabine],did not induce,not amplified,induced,40%,induced,induced,,,,
COC(=O)Nc1nc2ccc(C(=O)c3ccccc3)cc2[nH]1 [Mebendazole],,,,,,,20 fold,induced GFP signal,induced,induced
